Results: ChEMBL document CHEMBL1909046, “DrugMatrix in vitro pharmacology data”

Columns and labels:
[1] = target: Vascular endothelial growth factor receptor 1 (Homo sapiens, UniProt P17948); assay: biochemical; type: cell-based, HUVEC; note: in other assays of this panel Not Active means under 50% inhibition at 10 µM
[2] = DRUGMATRIX: Potassium Channel [KATP] radioligand binding (ligand: [3H] Glyburide); type: cell membranes, Membrane; conditions: hit-t15; Not Active = under 50% inhibition at 10 µM
Acetylcholinesterase = Acetylcholinesterase (Homo sapiens, UniProt P22303); assay: DRUGMATRIX: Acetylcholinesterase enzyme inhibition (substrate: acetylthiocholine); type: cell-based, HEK293; conditions: hek293; Not Active = under 50% inhibition at 10 µM
Androgen receptor = target: T1, Androgen receptor (Rattus norvegicus, UniProt P15207); note: in other assays of this panel Not Active means under 50% inhibition at 10 µM
T1 sequence (P15207 whole entry): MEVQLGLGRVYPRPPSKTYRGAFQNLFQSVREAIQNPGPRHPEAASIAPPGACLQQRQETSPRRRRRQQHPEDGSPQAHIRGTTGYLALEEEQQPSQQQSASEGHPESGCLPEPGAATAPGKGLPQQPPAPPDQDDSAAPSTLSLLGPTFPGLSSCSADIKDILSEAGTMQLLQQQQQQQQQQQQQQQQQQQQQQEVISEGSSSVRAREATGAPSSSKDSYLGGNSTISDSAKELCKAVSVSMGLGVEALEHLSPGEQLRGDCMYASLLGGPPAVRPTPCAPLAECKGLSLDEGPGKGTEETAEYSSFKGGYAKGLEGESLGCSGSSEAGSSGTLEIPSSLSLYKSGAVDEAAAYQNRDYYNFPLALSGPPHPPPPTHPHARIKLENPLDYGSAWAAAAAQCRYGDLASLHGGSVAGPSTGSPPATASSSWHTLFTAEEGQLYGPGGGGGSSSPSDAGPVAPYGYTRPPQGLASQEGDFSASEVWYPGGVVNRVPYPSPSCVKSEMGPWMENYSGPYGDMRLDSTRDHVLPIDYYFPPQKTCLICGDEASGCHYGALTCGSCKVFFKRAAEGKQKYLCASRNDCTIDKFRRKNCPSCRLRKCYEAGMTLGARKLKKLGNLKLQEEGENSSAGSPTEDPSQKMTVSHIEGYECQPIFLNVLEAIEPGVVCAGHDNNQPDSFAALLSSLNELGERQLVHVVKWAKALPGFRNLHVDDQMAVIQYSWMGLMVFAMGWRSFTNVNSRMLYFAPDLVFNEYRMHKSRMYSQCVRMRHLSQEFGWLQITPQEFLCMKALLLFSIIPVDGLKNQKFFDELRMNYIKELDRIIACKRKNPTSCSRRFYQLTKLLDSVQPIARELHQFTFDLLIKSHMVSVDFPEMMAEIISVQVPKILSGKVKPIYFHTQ

Mu-type opioid receptor = Mu-type opioid receptor (Homo sapiens, UniProt P35372); assay: DRUGMATRIX: Opiate mu (OP3, MOP) radioligand binding (ligand: [3H] Diprenorphine); type: cell membranes, CHO-K1, Membrane; conditions: cho-k1; Not Active = under 50% inhibition at 10 µM
[3] = DRUGMATRIX: GABAA, Muscimol, Central radioligand binding (ligand: [3H] Muscimol); type: cell membranes, Rattus norvegicus, Wistar, Brain, Membrane; conditions: Not Active = under 50% inhibition at 10 µM

Chain of Acetylcholinesterase (P22303 whole entry): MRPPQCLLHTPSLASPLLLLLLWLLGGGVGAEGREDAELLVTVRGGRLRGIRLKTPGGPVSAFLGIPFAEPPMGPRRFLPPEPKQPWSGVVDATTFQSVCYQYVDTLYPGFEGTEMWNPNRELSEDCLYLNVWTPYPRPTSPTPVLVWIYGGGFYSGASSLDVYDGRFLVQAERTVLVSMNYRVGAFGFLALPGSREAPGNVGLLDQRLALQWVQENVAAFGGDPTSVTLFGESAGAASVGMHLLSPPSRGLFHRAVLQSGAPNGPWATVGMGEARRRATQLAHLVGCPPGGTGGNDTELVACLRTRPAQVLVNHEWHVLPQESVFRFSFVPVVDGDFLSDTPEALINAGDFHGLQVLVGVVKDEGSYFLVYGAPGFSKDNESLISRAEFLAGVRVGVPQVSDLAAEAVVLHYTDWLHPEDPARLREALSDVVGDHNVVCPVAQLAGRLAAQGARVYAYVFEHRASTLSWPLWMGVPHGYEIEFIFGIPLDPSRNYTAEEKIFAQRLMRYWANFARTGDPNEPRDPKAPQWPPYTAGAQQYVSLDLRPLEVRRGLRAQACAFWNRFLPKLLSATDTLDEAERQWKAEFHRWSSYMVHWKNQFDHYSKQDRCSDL
Chain of Vascular endothelial growth factor receptor 1 (P17948 whole entry): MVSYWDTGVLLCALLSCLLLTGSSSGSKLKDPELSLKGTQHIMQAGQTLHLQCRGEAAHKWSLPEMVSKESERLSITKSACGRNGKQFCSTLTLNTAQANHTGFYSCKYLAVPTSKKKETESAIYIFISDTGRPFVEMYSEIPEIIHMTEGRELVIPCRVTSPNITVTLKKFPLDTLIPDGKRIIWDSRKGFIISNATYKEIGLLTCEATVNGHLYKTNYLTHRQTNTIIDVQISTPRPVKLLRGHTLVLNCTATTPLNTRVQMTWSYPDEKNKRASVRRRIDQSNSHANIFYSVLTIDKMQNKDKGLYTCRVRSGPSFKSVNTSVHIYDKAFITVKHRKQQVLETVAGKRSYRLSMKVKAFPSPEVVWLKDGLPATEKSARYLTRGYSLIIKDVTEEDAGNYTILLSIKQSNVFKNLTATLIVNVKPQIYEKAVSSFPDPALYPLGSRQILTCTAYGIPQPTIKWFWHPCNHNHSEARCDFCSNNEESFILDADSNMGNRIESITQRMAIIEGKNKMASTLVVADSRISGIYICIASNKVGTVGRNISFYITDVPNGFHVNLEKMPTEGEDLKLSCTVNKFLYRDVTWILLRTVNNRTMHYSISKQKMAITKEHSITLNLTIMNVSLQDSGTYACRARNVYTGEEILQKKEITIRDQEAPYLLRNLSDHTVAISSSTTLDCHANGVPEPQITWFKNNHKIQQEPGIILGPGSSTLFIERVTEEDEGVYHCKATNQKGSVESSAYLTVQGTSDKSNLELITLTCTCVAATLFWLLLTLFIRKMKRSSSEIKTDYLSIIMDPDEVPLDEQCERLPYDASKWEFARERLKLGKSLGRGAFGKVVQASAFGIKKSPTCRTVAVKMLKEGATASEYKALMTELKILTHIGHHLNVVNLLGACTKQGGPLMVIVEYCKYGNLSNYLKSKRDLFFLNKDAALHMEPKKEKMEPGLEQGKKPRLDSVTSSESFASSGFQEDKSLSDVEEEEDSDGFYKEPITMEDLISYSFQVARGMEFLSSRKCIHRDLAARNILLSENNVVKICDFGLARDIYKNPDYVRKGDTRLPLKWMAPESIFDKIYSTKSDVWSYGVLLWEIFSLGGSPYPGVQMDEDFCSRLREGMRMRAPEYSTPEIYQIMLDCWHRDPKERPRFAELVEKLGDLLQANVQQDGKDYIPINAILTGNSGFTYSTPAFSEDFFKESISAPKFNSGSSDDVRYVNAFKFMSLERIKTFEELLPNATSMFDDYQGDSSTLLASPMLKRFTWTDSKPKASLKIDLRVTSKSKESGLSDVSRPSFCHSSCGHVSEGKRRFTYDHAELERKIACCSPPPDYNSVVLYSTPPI
Chain of Mu-type opioid receptor (P35372 whole entry): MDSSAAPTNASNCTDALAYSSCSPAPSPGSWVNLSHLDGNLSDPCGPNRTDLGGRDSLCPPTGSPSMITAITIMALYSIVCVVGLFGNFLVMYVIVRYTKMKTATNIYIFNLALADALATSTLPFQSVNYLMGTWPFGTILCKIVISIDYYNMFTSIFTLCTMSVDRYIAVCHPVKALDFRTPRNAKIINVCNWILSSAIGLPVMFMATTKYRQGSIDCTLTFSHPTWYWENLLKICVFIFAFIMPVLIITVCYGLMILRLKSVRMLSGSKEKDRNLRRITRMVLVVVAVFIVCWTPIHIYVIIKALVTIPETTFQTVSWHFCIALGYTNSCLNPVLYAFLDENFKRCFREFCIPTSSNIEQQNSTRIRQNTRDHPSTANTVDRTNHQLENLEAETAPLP

Row | Structure (SMILES) | IC50 ([1]; huvec) | IC50 [2] | Ki [2] | IC50 (Acetylcholinesterase) | IC50 (Androgen receptor) | IC50 (Mu-type opioid receptor) | IC50 [3] | Ki [3] | IC50 ([1]; read-out: IC50) [µM] | Ki ([1]; read-out: Ki) [µM]
1 | Nc1ccc2c3c(cccc13)C(=O)NC2=O | Not Active | Not Active | Not Active | Not Active | Not Active | Not Active | Not Active | Not Active |  | 
2 | O=c1cnn([C@@H]2O[C@H](CO)[C@@H](O)[C@H]2O)c(=O)[nH]1 [6-AZAURIDINE] | Not Active | Not Active | Not Active | Not Active | Not Active | Not Active | Not Active | Not Active |  | 
3 | CCC1(CCC(C)C)C(=O)NC(=O)NC1=O [AMOBARBITAL] | Not Active | Not Active | Not Active | Not Active | Not Active | Not Active | Not Active | Not Active |  | 
4 | CC(C(=O)O)c1ccc2oc(-c3ccc(Cl)cc3)nc2c1 (stereo not given) [BENOXAPROFEN] | Not Active | Not Active | Not Active | Not Active | Not Active | Not Active | Not Active | Not Active |  | 
5 | CN(C)[C@@H]1C(O)=C(C(N)=O)C(=O)[C@@]2(O)C(O)=C3C(=O)c4c(O)ccc(Cl)c4[C@@](C)(O)[C@H]3C[C@@H]12 [CHLORTETRACYCLINE] | Not Active | Not Active | Not Active | Not Active | Not Active | Not Active | Not Active | Not Active |  | 
6 | O=C1CN=C(c2ccccc2Cl)c2cc([N+](=O)[O-])ccc2N1 [CLONAZEPAM] | Not Active | Not Active | Not Active | Not Active | Not Active | Not Active | Not Active | Not Active |  | 
7 | C[C@@H]1CC[C@@]2(OC1)O[C@H]1[C@@H](O)[C@H]3[C@@H]4CC[C@H]5C[C@@H](O[C@@H]6O[C@H](CO)[C@H](O[C@@H]7O[C@H](CO)C(O)[C@H](O[C@@H]8OC[C@@H](O)[C@H](O)[C@H]8O)[C@H]7O[C@@H]7O[C@H](CO)[C@H](O)[C@H](O[C@@H]8O[C@H](CO)[C@@H](O)[C@H](O)[C@H]8O)[C@H]7O)[C@H](O)[C@H]6O)[C@H](O)C[C@]5(C)[C@H]4CC[C@]3(C)[C@H]1[C@@H]2C (stereo not given in full) [DIGITONIN] |  | Not Active | Not Active | Not Active | Not Active | Not Active | Not Active | Not Active | 3.86 | 1
8 | C[C@@H](CO)NC(=O)[C@@H]1C=C2c3cccc4[nH]cc(c34)C[C@H]2N(C)C1 [ERGONOVINE] | Not Active | Not Active | Not Active | Not Active | Not Active |  | Not Active | Not Active |  | 
9 | COc1ccc2c3c1O[C@H]1C[C@@H](O)C=C[C@@]31CCN(C)C2 [GALANTAMINE] | Not Active | Not Active | Not Active |  | Not Active | Not Active | Not Active | Not Active |  | 
10 | CC(C)=CCC/C(C)=C/CO [GERANIOL] | Not Active | Not Active | Not Active | Not Active | Not Active | Not Active | Not Active | Not Active |  | 
11 | CC(C)NNC(=O)c1ccncc1 [IPRONIAZID] | Not Active | Not Active | Not Active | Not Active | Not Active | Not Active | Not Active | Not Active |  | 
12 | CCN(CC)CCOCCC1=CCC2CC1C2(C)C (stereo not given) [MYRTECAINE] | Not Active | Not Active | Not Active | Not Active | Not Active | Not Active | Not Active | Not Active |  | 
13 | CC(=O)O[C@H]1C(=O)[C@@]2(C)[C@H]([C@H](OC(=O)c3ccccc3)[C@]3(O)C[C@H](OC(=O)[C@H](O)[C@@H](NC(=O)c4ccccc4)c4ccccc4)C(C)=C1C3(C)C)[C@]1(OC(C)=O)CO[C@@H]1C[C@@H]2O [PACLITAXEL] | Not Active | Not Active | Not Active | Not Active | Not Active | Not Active | Not Active | Not Active |  | 
14 | C[n+]1ccc(-c2cc[n+](C)cc2)cc1.[Cl-].[Cl-] [PARAQUAT DICHLORIDE] | Not Active | Not Active | Not Active | Not Active | Not Active |  | Not Active | Not Active |  | 
